Assay results: publication PMC11583597, “Brain uptake pharmacokinetics of albiglutide, dulaglutide, tirzepatide, and DA5-CH in the search for new treatments of Alzheimer’s and Parkinson’s diseases” (Tissue Barriers, 2023)
Like-named read-outs stand apart in the source and are kept apart here. Marks after values point to notes of the source that are not given here.

What was measured:
[1] = set-up: species or system male CD-1 mice; details: mouse, in vivo, iv
Description: Anesthetized mice were co-injected iv with 3 × 10^5 cpm-1×10^6 cpm ^125I/^14C-IRA and 5 × 10^5 cpm of ^99mTc-Alb in 0.2 ml BSA-LR with or without 1 μg of the non-radioactive IRA. Fifteen minutes after iv injection, blood was collected from the right carotid artery, and the whole brain was removed and weighed. Samples were counted for radioactivity. Results were expressed as delta B/S ratios in units of μl/g.

[2] = set-up: species or system male CD-1 mice; details: mouse, in vivo, iv; remark: listed apart in the source
Text: This value is then multiplied by the %Inj/ml of each ^125I/^14C-IRA at each time point. After plotting the %Inj/g at each time point for each IRA, we calculated the area under the curve (AUC) to better identify the amount of brain exposure to each IRA over the entire time course.

[3] = Brain influx and initial volume of distribution (multiple-time regression analysis); set-up: species or system male CD-1 mice; details: mouse, in vivo; for Blood to Brain Unidirectional Influx Rate (Ki): iv
Description: (§1) Following anesthetization, the jugular vein and right carotid artery were exposed. Mice were given a jugular vein injection of 0.2 ml BSA-LR containing 3 × 10^5 cpm-1×10^6 cpm of an ^125I/^14C-labeled IRA and 5 × 10^5 cpm of ^99mTc-Alb. Blood samples were collected from the carotid artery at various time points from 1 to 60 min after iv injection (see Figure 1). Mice were then decapitated, and their brains were removed and weighed. After clotting, the arterial blood was centrifuged at 3200 ×g for 10 min. Levels of radioactivity in serum (50 μl) and brain were measured in a gamma counter for ^125I and ^99mTc for 3 min. After ^99mTc decay, ^14C-DA5-CH samples were solubilized with Solvable (Sigma), transferred to scintillation vials containing Ecoscint (National Diagnostics) and ^14C was measured in a beta counter. Sample injection checks were taken throughout the course of the study to calculate the mean injected cpm/mouse. To determine the rate of ^125I/^14C-IRA clearance from the serum, the results were expressed as the percentage of an injected dose in each ml of serum (%Inj/ml), which was calculated by dividing the cpm in a ml of serum (cpm/ml serum) by the cpm injected into the mouse (cpm/Inj):
To calculate the blood-to-brain unidirectional influx constant (Ki), multiple-time regression analysis was used as first described by Patlak, Blasberg, and Fenstermacher.[67],[68] The brain/serum (B/S) ratios (μl/g) of the ^125I/^14C-IRA in each gram of brain were calculated from the data in Section 2.6 and plotted against their respective exposure times as previously applied by Rhea et al. 2018.[69] Exposure time differs from clock time in that exposure time corrects for clearance of the ^125I/^14C-IRA from blood and thus, better represents the amount of ^125I/^14C-IRA available for BBB transport at any given time. Delta B/S ratios were calculated by subtracting the vascular space as measured by the B/S ratio for ^99mTc-Alb from the B/S ratio for the respective ^125I/^14C-IRA. Thus, delta B/S ratios represent material that has been taken up by or has crossed the BBB. The slope of the linear portion of the relation between delta B/S ratios and exposure time defines Ki (μl/g-min) and is reported with its error term. This represents Model 1 for DA5-CH. The y-intercept of this linear portion of the relation defines Vi, (μl/g), the initial volume of distribution in brain at t = 0, which is the functional volume per unit brain mass of a soluble compound that exchanges rapidly and reversibly with plasma.[68] Vi consists of the vascular space (Vv) and any residual space after accounting for Vv and usually represents vascular binding (Vr). Since we correct each ^125I/^14C-IRA delta B/S for vascular space, our y-intercept values likely represent vascular binding. For DA5-CH, there appeared to be rapid, early transport that would indicate a Vr equal to 0. Therefore, using Vr equal to 0, we calculated an estimate of this new Ki and refer to it throughout the manuscript as Model 2.

[4] = In vivo stability of 125I/14C-IRAs in brain (acid precipitation); set-up: species or system male CD-1 mice; details: mouse, iv
Description: (§2) We measured the stability of the radiolabeled IRAs in brain and blood. Following anesthetization, arterial blood and whole brain were taken at two time points (10 or 60 min) after iv injection of 3 × 10^5 cpm-1×10^6 cpm of ^125I/^14C-IRA in 0.2 ml of BSA/LR. The blood samples were allowed to clot, centrifuged at 3200 ×g for 10 min, and 50 μl of the separated serum was added to 250 μl of BSA-LR. Samples were combined with equal volume 30% TCA (300 μl), mixed, and then centrifuged for 10 min at 5400 ×g. Brains were homogenized in 800 μl of BSA-LR with a bead beater for 30 sec at 4800 rpm twice. Following centrifugation at 5400 ×g for 15 min, a portion of the resulting supernatant was added to an equal volume of 30% TCA, mixed, and then centrifuged at 5400 ×g for 10 min. The radioactivity in the resulting supernatant and pellet (Sup and Pel fractions) for serum and brain was calculated separately, and the percent of radioactivity in the precipitate was calculated using the following equation:(1) %AcidPrecip=100×Pel/Sup+Pel
(§3) To correct for degradation that might have occurred during the processing, ^125I/^14C-IRA was added to non-radioactive arterial whole blood or to whole brain and processed as above. The biological samples were corrected for degradation during processing by dividing their values by those for processing control (Pcon) values and multiplying by 100. This can sometimes result in a value greater than 100%.
(§4) Immediately after counting the radioactivity, the blood and brains from the 10 min and 6 h time points were processed as described in Section 2.5 for in vivo stability. For further comparison, data from the 1 h time point were taken from the original pharmacokinetic uptake study. The ^125I-IRA brain % acid precipitation (%AP) was divided by the ^125I-IRA serum %AP at each time point to calculate the %AP B/S ratio. This value was multiplied by the B/S ratio for each ^125I-IRA to correct for degradation over the 10 min, 1 h, or 6 h time periods. Corrected AP B/S ratios were then corrected for vascular space by subtracting the ^99mTc-Alb B/S ratio within each mouse for the 10 min and 6 h time points (AP corrected delta B/S ratio). For the 1 h time point, the average ^99mTc-Alb B/S ratio (10.03 μl/g) at 10 min across all ^125I-IRAs was used for correction. The AP corrected delta B/S ratio for each ^125I-IRA was then multiplied by the %Inj/ml within each mouse to calculate the AP corrected delta %Inj/g.

[5] = mouse, in vivo, iv
Description: The capillary depletion method was used to separate cerebral capillaries from brain parenchyma. Anesthetized mice received an iv injection of 3 × 10^5-1×10^6 cpm of an ^125I-IRA with 5 × 10^5 cpm ^99mTc-Alb BSA-LR and 15 min later, blood and brains were collected. Whole brains were homogenized with physiological buffer (10 mM HEPES, 141 mM NaCl, 4 mM KCl, 2.8 mM CaCl2, 1 mM MgSO4, 1 mM NaH2PO4, and 10 mM D-glucose adjusted to pH 7.4) using two different sized glass dounce homogenizers, mixed with 26% dextran (Sigma-Aldrich), and centrifuged at 5400 ×g for 15 min at 4°C.[69] The pellet, containing the capillaries, and the supernatant, containing the brain parenchymal/interstitial fluid space, were carefully separated. The ratio of ^125I-IRA radioactivity in the supernatant (parenchyma) was corrected for vascular space by subtracting the B/S ratio of ^99mTc-Alb in the supernatant. The corrected parenchyma/serum and capillary/serum ratios (μl/g) were calculated as (cpm/g tissue)/(cpm/μl) serum.

[6] = set-up: species or system male CD-1 mice; details: mouse, in vivo, iv; remark: listed apart in the source
Description: as §1
(2) %Inj/ml=100×cpm/mlserum/meancpm/Inj
The log(%Inj/ml) was plotted against time to calculate the rate of clearance from the serum. To calculate the half-time clearance in minutes, the inverse slope […] of the curve for each IRA was multiplied by 0.301 (log10[2]). The blood and brain cpm data were used for the measurement of brain influx and initial volume of distribution in brain as described in Section 2.7.

[7] = Octanol/buffer partition coefficient (lipid solubility); type: physicochemical
Description: We measured the lipid solubility of the IRAs, using octanol and PB. Briefly, 1 × 10^5 counts per minute (cpm) of each ^125I/^14C-IRA were added to triplicate tubes containing equal volumes PB and octanol (Sigma-Aldrich). This solution was vigorously mixed for 1 min and centrifuged at 5500 ×g for 10 min to separate the two phases. Aliquots of 100 μl were taken in duplicate from each phase, and total radioactivity was counted in a gamma counter (Wizard2, Perkin-Elmer) or beta counter (TriCarb 3110TR, Perkin-Elmer). The ratio of the cpm in the octanol phase to the cpm in the buffer phase equates to the mean partition coefficient (Pcoeff) and indicates lipophilicity. The log value for the coefficient can be either greater than unity, indicative of a lipophilic compound, or less than unity, indicative of a hydrophilic compound.

[8] = In vivo stability of 125I/14C-IRAs in blood/serum (acid precipitation); set-up: species or system male CD-1 mice; details: mouse, iv
Description: as §2, §3, §4

[9] = mouse, in vivo, iv; cited from earlier work
Description: The unidirectional blood-to-brain influx rate (Ki) calculated from Figure 2c for all four IRAs tested is graphed with previously calculated Ki’s for other IRAs[50] in Figure 3 by rank.

[10] = mouse, in vivo; cited from earlier work
Description: The rank order of IRAs showing significant brain uptake 1 h after iv injection with respect to AUCs is similar, but not identical to the rank order of their Ki’s (see Figures 5b and 3b). Less similar is the rank order of IRAs for uptake into brain parenchyma defined as the percent reaching the brain that was in its parenchyma vs. its capillaries. The rank order of parenchymal uptake was specifically DA4-JC (89.7%) = albiglutide (BAF) (89.4%) > DA3-CH (86%) > exenatide (84.2%) > Peptide 17 (73.2%) > lixisenatide (66.8%) > dulaglutide (BAF) (61.8%) > DA5-CH (57.6%) > Peptide 21 (43.6%) > liraglu ...

[11] = mouse, in vivo, iv; cited from earlier work; remark: listed apart in the source

Row | Substance | Whole Brain delta brain/serum ratio, Without unlabeled IRA [1] [µL/g] | Percent of injected dose taken up per gram brain (%Inj/g), 10 min [2] [%Inj/g] | Percent of injected dose taken up per gram brain (%Inj/g), 60 min [2] [%Inj/g] | Blood to Brain Unidirectional Influx Rate (Ki) [3] [µL/g/min] | Percentage of labeled IRA intact, Whole Brain, 10 min [4] [%] | Percentage of labeled IRA intact, Whole Brain, 60 min [4] [%] | Percent in Parenchyma vs. Capillaries [5] [%] | Half-Time Serum Clearance (t1/2) [6] [min] | Lipid Solubility Partition Coefficient ([7]; pH 7.5) | Log Partition Coefficient (Log P) ([7]; pH 7.5) | Percentage of labeled IRA intact, Serum, 10 min [8] [%] | Percentage of labeled IRA intact, Serum, 60 min [8] | Percent of injected dose taken up per gram brain (%Inj/g), 15 min [2] [%Inj/g] | Probable Ki of DA5-CH [3] [µL/g/min] | Probable Vr of DA5-CH [3] [µL/g] | Log Partition Coefficient (Log P) ([7]; shake-flask octanol / sodium phosphate buffer pH 7.5 (PB), radiolabelled IRA, gamma or beta counting, mean ± SE, triplicate tubes) | Blood to Brain Unidirectional Influx Rate (Ki) [9] [µL/g/min] | Percent reaching the brain that was in parenchyma vs. capillaries [10] [%] | %Inj/g by 60 min [11] [%Inj/g]
1 | HGEGTFTSDVSSYLEEQAAKEFIAWLVKGGG [Dulaglutide (BAF)] | 17.86 ± 0.99 | 0.20 | 0.33 | 1.095 ± 0.072 | 58.42 ± 0.3 | 37.47 ± 4.1 | 61.8 | 6.02 | 0.0102 ± 0.0007 | -1.991 ± 0.0287 | 84.67 ± 0.8 | 39.1 ± 1.4^a % | – | – | – | – | – | – | –
2 | HGEGTFTSDVSSYLEGQAAKEFIAWLVKGR [Albiglutide (BAF)] | 39.3 ± 1.50 | – | – | 1.379 ± 0.086 | 43.35 ± 2.9 | 40.9 ± 9.3 | 89.4 | 6.14 | 0.0132 ± 0.0040 | -1.916 ± 0.121 | 53.96 ± 0.4 | 20.71 ± 1.3^a % | 0.36 | – | – | – | – | – | –
3 | YXEGTFTSDYSIYLDKQAAXEFVNWLLAGGPSSGAPPPSKRRQRRKKRGY-NH2 [DA5-CH, Experimental balanced GIPR/GLP-1R dual agonist; Peptide 18 of Finan et al. with extension; custom synthesized by AnaSpec] | 26.25 ± 8.07 | – | – | 0.242 ± 0.128 | 79.7 ± 12.9 | 77.61 ± 22.3 | 57.6 | 2.03 | – | – | 83.83 ± 4.9 | 49.35 ± 2.5^a % | – | 0.24 to 2.5 | 0 to 11.2 | -2.183 ± 0.0281 | – | – | –
4 | exenatide: FDA-approved IRA tested in the earlier study (ref 50) | – | – | – | – | – | – | – | – | – | – | – | – | – | – | – | – | 0.4231 | 84.2 | 0.56
